# Laboratory results from publication PMC4839570, “Novel Anthra[1,2-c][1,2,5]Thiadiazole-6,11-Diones as Promising Anticancer Lead Compounds: Biological Evaluation, Characterization & Molecular Targets Determination” (PLoS ONE, 2016).
# Where two headings read alike, the source gives them in different places.
# Tests used:
# OVCAR-5 = experiment: NCI-60 cytotoxicity screen; format: cell-based
# HOP-92 = experiment: NCI-60 cytotoxicity screen; format: cell-based
# EKVX = experiment: NCI-60 cytotoxicity screen; format: cell-based
# KM12 = experiment: NCI-60 cytotoxicity screen; format: cell-based
# RPMI-8226 = experiment: NCI-60 cytotoxicity screen; format: cell-based
# CAKI-1 = experiment: NCI-60 cytotoxicity screen; format: cell-based
# MDA-MB-435 = experiment: NCI-60 cytotoxicity screen; format: cell-based
# U251 = experiment: JFCR-39 cytotoxicity screen; format: cell-based
# SF-268 [1] = experiment: NCI-60 cytotoxicity screen; format: cell-based
# HBC-5 = experiment: JFCR-39 cytotoxicity screen; format: cell-based
# A549/ATCC = experiment: NCI-60 cytotoxicity screen; format: cell-based
# MKN7 = experiment: JFCR-39 cytotoxicity screen; format: cell-based
# HCC-2998 = experiment: NCI-60 cytotoxicity screen; format: cell-based
# NCI-H226 = experiment: NCI-60 cytotoxicity screen; format: cell-based
# OVCAR-3 = experiment: cells; details: Homo sapiens, OVCAR-3, read-out: mean log10 of the GI50 values (converted)
# SF-295 = experiment: JFCR-39 cytotoxicity screen; format: cell-based
# A498 = experiment: NCI-60 cytotoxicity screen; format: cell-based
# PC-3 [2] = experiment: NCI-60 cytotoxicity screen; format: cell-based
# MDA-MB-231/ATCC = experiment: NCI-60 cytotoxicity screen; format: cell-based
# MKN1 = experiment: JFCR-39 cytotoxicity screen; format: cell-based
# MKN28 = experiment: JFCR-39 cytotoxicity screen; format: cell-based
# SF-268 [3] = experiment: JFCR-39 cytotoxicity screen; format: cell-based
# [4] = test system: NF-κB p65 subunit in OVCAR-3 cells; experiment: Western blotting of nuclear and cytosolic fractions; format: cell-based, human; details: OVCAR-3 nuclear fraction
# Experimental: Treated cells were fractionated into nuclear and cytosolic fractions using the Nuclear/Cytosol fractionation kit (BioVision), separated by electrophoresis in SDS-PAGE gels and transferred to Amersham Hybond-P PVDF Membranes. Membranes were probed with either anti-NF-κB p65 rabbit monoclonal primary antibody [E379] Abcam # ab32536, anti-TATA binding protein (TBP) mouse antibody (1TBP18), or anti-beta Tubulin rabbit antibody [NB600-936]. After washing, membranes were incubated with either goat anti-rabbit IgG H&L (HRP) (ab6721), or rabbit anti-mouse IgG H&L (HRP) (ab6728) secondary antibodies. Membranes were developed using the Immobilon Western chemiluminescent HRP substrate kit. Protein bands were normalized to either the beta Tubulin or TBP bands and quantified using ImageJ software.
# DMS273 = experiment: JFCR-39 cytotoxicity screen; format: cell-based
# HT-29 = experiment: JFCR-39 cytotoxicity screen; format: cell-based
# PC-3 [5] = experiment: JFCR-39 cytotoxicity screen; format: cell-based
# MCF-7 = experiment: JFCR-39 cytotoxicity screen; format: cell-based
# [6] = test system: normal cardiac myoblast H9c2 cells; details: rat
# Experimental: Briefly, 96 well microtiter plates were inoculated with the specified human cancer cell lines in RPMI 1640 medium containing 5% fetal bovine serum and 2 mM L-glutamine at the specified plating densities. The microtiter plates were incubated at 37°C, 5% CO2, and 100% relative humidity for 24 h. The test compounds were solubilized in DMSO at 400-fold the desired final maximum test concentration, diluted with complete medium containing gentamicin and added to the wells of the microtiter plates to achieve the final desired compound concentration, then incubated for an additional 48 h at the same incubation conditions. The media were removed, the cells were fixed then stained with sulforhodamine B and the unbound dye was removed by washing with acetic acid. The bound dye was resolubilized with trizma base and the absorbance at 515 nm was measured. Cells were stained with the WST-1 cell proliferation reagent instead of sulforhodamine B in some experiments and absorbance were measured at 440 nm. The three dose response parameters GI50, TGI and LC50 were calculated for each experimental compound as follows [48]: For values where Ti ≥ Tz the formula is [ (Ti-Tz) / (C-Tz)] x 100 For values where Ti < Tz the formula is [ (Ti-Tz) / Tz] x 100 Where Ti is the absorbance of the solubilized Sulforhodamine B (SRB) (representing the number of cells) of the five different concentrations of the compound used in the test, Tz is the absorbance of the SRB at time zero, and C is the absorbance of the SRB of the control growth.
# T-47D = experiment: NCI-60 cytotoxicity screen; format: cell-based
# [7] = Homo sapiens, Fig 7, read-out: mean log10 of the GI50 values (converted)
# [8] = Homo sapiens, five-dose, read-out: GI50
# [9] = Homo sapiens, five-dose, read-out: LC50 (the source's name)
# [10] = Homo sapiens, read-out: LC50 (the source's name)
smiles,measurement,setting,value
"O=C1c2ccccc2C(=O)c2c1ccc1nsnc21 [NSC745885, anthra[1,2-c][1,2,5]thiadiazole-6,11-dione]",GI50,OVCAR-5; [7],2.04 µM
same,GI50,OVCAR-5; [8],1.91 µM
same,CC50,OVCAR-5; [9],8.84 µM
same,TGI,OVCAR-5; five-dose,4.11 µM
same,GI50,HOP-92; [7],2.69 µM
same,GI50,HOP-92; [8],2.52 µM
same,CC50,HOP-92; [9],> 100 µM
same,TGI,HOP-92; five-dose,6.64 µM
same,GI50,EKVX; [7],1.86 µM
same,GI50,EKVX; [8],1.55 µM
same,CC50,EKVX; [9],7.66 µM
same,TGI,EKVX; five-dose,3.45 µM
same,GI50,KM12; [7],4.68 µM
same,GI50,KM12; [8],1.96 µM
same,CC50,KM12; [9],59.7 µM
same,TGI,KM12; five-dose,5.54 µM
same,GI50,RPMI-8226; [7],1.35 µM
same,GI50,RPMI-8226; [8],1.18 µM
same,CC50,RPMI-8226; [9],> 100 µM
same,TGI,RPMI-8226; five-dose,3.46 µM
same,GI50,CAKI-1; [7],1.86 µM
same,GI50,CAKI-1; [8],1.61 µM
same,CC50,CAKI-1; [9],5.44 µM
same,TGI,CAKI-1; five-dose,2.96 µM
same,GI50,MDA-MB-435; [7],1.91 µM
same,GI50,MDA-MB-435; [8],1.91 µM
same,CC50,MDA-MB-435; [9],5.76 µM
same,TGI,MDA-MB-435; five-dose,3.31 µM
same,TGI,U251,3.1 µM
same,GI50,"U251; Homo sapiens, U-251",1.6 µM
same,CC50,"U251; Homo sapiens, U-251, read-out: LC50 (the source's name)",5.8 µM
same,GI50,SF-268 [1]; [7],2.75 µM
same,GI50,SF-268 [1]; [8],2.17 µM
same,CC50,SF-268 [1]; [9],27.7 µM
same,TGI,SF-268 [1]; five-dose,5.77 µM
same,TGI,HBC-5,3.5 µM
same,GI50,"HBC-5; Homo sapiens, HBC5",1.9 µM
same,CC50,"HBC-5; Homo sapiens, HBC5, read-out: LC50 (the source's name)",6.2 µM
same,GI50,A549/ATCC; [7],5.75 µM
same,GI50,A549/ATCC; [8],14.7 µM
same,CC50,A549/ATCC; [9],91 µM
same,TGI,A549/ATCC; five-dose,36.6 µM
same,TGI,MKN7,3.7 µM
same,GI50,"MKN7; Homo sapiens, MKN-7",1.1 µM
same,CC50,"MKN7; Homo sapiens, MKN-7, read-out: LC50 (the source's name)",17 µM
same,GI50,HCC-2998; [7],5.89 µM
same,LC50 (concentration causing 50% net cell kill),"HCC-2998; Homo sapiens, five-dose",66.6 µM
same,GI50,HCC-2998; [8],16.4 µM
same,TGI,HCC-2998; five-dose,33.1 µM
same,GI50,NCI-H226; [7],8.32 µM
same,LC50 (concentration killing 50% of cells),"NCI-H226; Homo sapiens, five-dose",63.7 µM
same,GI50,NCI-H226; [8],4.48 µM
same,TGI,NCI-H226; five-dose,21.6 µM
same,GI50,OVCAR-3,1.35 µM
same,TGI,SF-295,3.3 µM
same,GI50,SF-295; Homo sapiens,1.8 µM
same,CC50,SF-295; [10],5.9 µM
same,GI50,A498; [7],35.5 µM
same,GI50,A498; [8],12.4 µM
same,CC50,A498; [9],52 µM
same,TGI,A498; five-dose,25.4 µM
same,GI50,PC-3 [2]; [7],3.16 µM
same,GI50,PC-3 [2]; [8],3.23 µM
same,CC50,PC-3 [2]; [9],> 100 µM
same,TGI,PC-3 [2]; five-dose,>100 µM
same,GI50,MDA-MB-231/ATCC; [7],2.14 µM
same,GI50,MDA-MB-231/ATCC; [8],1.75 µM
same,CC50,MDA-MB-231/ATCC; [9],> 100 µM
same,TGI,MDA-MB-231/ATCC; five-dose,5.90 µM
same,TGI,MKN1,1.5 µM
same,GI50,"MKN1; Homo sapiens, MKN-1",0.47 µM
same,CC50,"MKN1; Homo sapiens, MKN-1, read-out: LC50 (the source's name)",4.3 µM
same,TGI,MKN28,4.4 µM
same,GI50,"MKN28; Homo sapiens, MKN-28",1.8 µM
same,CC50,"MKN28; Homo sapiens, MKN-28, read-out: LC50 (the source's name)",13 µM
same,TGI,SF-268 [3],3.8 µM
same,GI50,SF-268 [3]; Homo sapiens,2 µM
same,CC50,SF-268 [3]; [10],7.1 µM
same,dose of almost complete inhibition of nuclear NF-κB p65 expression,[4],2.4 µM
same,TGI,DMS273,3.8 µM
same,GI50,"DMS273; Homo sapiens, DMS-273",2 µM
same,CC50,"DMS273; Homo sapiens, DMS-273, read-out: LC50 (the source's name)",7 µM
same,TGI,HT-29,39.0 µM
same,GI50,HT-29; Homo sapiens,19 µM
same,CC50,HT-29; [10],81 µM
same,TGI,PC-3 [5],2.8 µM
same,GI50,PC-3 [5]; Homo sapiens,1.3 µM
same,CC50,PC-3 [5]; [10],6 µM
same,TGI,MCF-7,3.9 µM
same,GI50,"MCF-7; Homo sapiens, MCF7",1.9 µM
same,CC50,"MCF-7; Homo sapiens, MCF7, read-out: LC50 (the source's name)",8.1 µM
same,cytotoxicity towards normal cardiac myoblast H9c2 cells,[6],significantly less cytotoxic effects on H9c2 cells at higher doses than doxorubicin
same,GI50,"T-47D; Homo sapiens, T47D, Fig 7, read-out: mean log10 of the GI50 values (converted)",0.724 µM
same,GI50,"T-47D; Homo sapiens, T47D, five-dose, read-out: GI50",1.39 µM
same,CC50,"T-47D; Homo sapiens, T47D, five-dose, read-out: LC50 (the source's name)",8.27 µM
same,TGI,T-47D; five-dose,3.39 µM
